In patent EP4635958A1, “PYRIMIDINE-CONTAINING POLYCYCLIC DERIVATIVE INHIBITOR, AND PREPARATION METHOD THEREFOR AND USE THEREOF” (Shanghai Hansoh Biomedical Co., Ltd., priority 2022, dated 2024):

What was measured:
[1] = tested on: human pancreatic cancer cell line (HPAC); assay: Antitumor efficacy in mouse transplanted tumor model of human pancreatic cancer cell line (HPAC); type: in vivo, mice (BALB/c nude); settings: Table 11, HPAC xenograft, 100mpk, PO*BID; for Tumor volume (mm^3, Mean ± SD) Day 0: Day 0 (baseline)
Description: 8-10 week old female conventional immunodeficient mice (BALB/c nude) with a body weight of 18 g-22 g were used as experimental animals, and a transplanted tumor model of human pancreatic cancer cell line (HPAC) was used to conduct in vivo efficacy experiments to test the anti-tumor results of the example compounds after gavage administration.
The example compounds of the present invention, made in house.
A certain amount of the example compound was weighed, and an appropriate amount of 10% vehicle (Solutol HS15) was added. The mixture was stirred on a magnetic stirrer for 0.5 h to formulate a homogeneous suspension at the desired concentration.
Human pancreatic cancer cell line (HPAC) was derived from COBIOER BIOSCIENCES CO., LTD, cultured on DMEM/F12 medium (Gibco, 11330-032) supplemented with 10% fetal calf serum (Gibco, 10091-148), 1×Insulin (51500-056, Gibco) and 10 ng/ml of EGF (PHG0311, Gibco) and observed under a microscope (Thermo Fisher, 311). The cells were routinely passaged when the cells reached 80%-90% confluence in the culture flask. The passaged cells were cultured in a 37°C, 5% CO2 incubator (Thermo Fisher, 311).
Under aseptic conditions, human pancreatic cancer cells (HPAC) in the logarithmic growth phase were harvested using 0.25% trypsin-EDTA (Gibco, 25200-056), washed and resuspended with phosphate buffer. The cell suspension was mixed with Matrigel (Corning, 356234) at a 1 : 1 ratio (v/v) and implanted subcutaneously into the right anterior dorsal region of immunodeficient mice (BALB/c nude). Each mouse was inoculated with 3*10^6 cells in a volume of 100 microliters (µL). After inoculation, when the tumor volume reached 100-200 mm^3, the mice would be evenly randomized into 5 groups based on the tumor size, with 5 mice per group, for in vivo efficacy experiments. The negative control group was the vehicle group.
Mode of administration: The example compounds were administered orally.
Twice a week, the long and short diameters of the tumor were measured using a vernier caliper, and the tumor volume (mm^3) was calculated using the formula: V = 0.5*D*d*d, where D and d are the long and short diameters of the tumor, respectively. The anti-tumor efficacy was determined by dividing the average increase in tumor volume of compound-treated animals by the average increase in tumor volume of untreated animals. The calculation formula for tumor inhibition rate was: When there is no tumor regression, TGI(%) = 100-[(Vt-V0) administration group/(Vt-V0) vehicle control group]*100%. When tumor regression occurs, TGI(%) = [1-(Vt-V0) administration group/V0 vehicle control group]*100%. All animals were euthanized after the experiment.

GP2D = assay: Inhibition of proliferation of KRAS G12D mutant tumor cell line GP2D (CellTiter-Glo); settings: Homo sapiens, GP2d, 72 h, read-out: GP2D IC50
[2] = Plasma stability test, dog plasma; type: in vitro ADME; settings: for half-life: read-out: t1/2 (converted);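 as to all read-outs here: parent compound left in dog plasma quantified by LC-MS with positive electrospray ionization, selected reaction monitoring and an internal standard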
Description: Liquid chromatography-mass spectrometer, centrifuge, vortexer, pipette, continuous dispenser, 96-well plate, 50% methanol aqueous solution, acetonitrile solution containing internal standard, blank matrix (plasma of rat, dog, or human), Propantheline (propantheline bromide), Mevinolin (lovastatin), and test compound.
After whole blood was collected from animals or humans, it was placed in a test tube containing an anticoagulant and centrifuged at 3500 rpm for 10 min to collect the upper pale yellow plasma.
The compound was weighed and the stock solution was formulated with DMSO and the working solution was formulated with 100 mM phosphate buffer.
• Instrument: API4000 liquid chromatography-mass spectrometer, AB Company, USA; • the ion source was electrospray ionization source (ESI); • drying gas (N2) temperature was 500°C; • electrospray voltage was 5500V; • the detection method was positive ion detection; • the scanning method was selected reaction monitoring (MRM); • the scanning time was 0.1s.

[3] = Pharmacokinetic determination in mice (IV and PO, plasma, LCMS/MS); type: in vivo, Balb/c mice; settings: mouse, in vivo, po, 30 mg/kg
How it was run: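 Male Balb/c mice, fasted overnight (n=3 per route): PO 30 mg/kg in 10% Captisol/50 mM citrate pH 5.0, or IV 1 mg/kg in 5% DMSO/10% Solutol HS15/85% PBS. Orbital blood sampled predose to 24 h; EDTA plasma analysed by LC-MS/MS.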

Row | Structure (SMILES) | Tumor volume (mm^3, Mean ± SD) Day 0 [1] | TGI(%) Day 21 [1] | Tumor volume (mm^3, Mean ± SD) Day 21 [1] | ΔT/ΔC(%) Day 21 [1] | IC50 (GP2D) | half-life ([2]; Dog plasma, 37°C) | Remaining rate (%) 0 min ([2]; dog, plasma, 0 h) | Remaining rate (%) 15 min ([2]; dog, plasma, 0.25 h) | Remaining rate (%) 30 min ([2]; dog, plasma, 0.5 h) | Remaining rate (%) 60 min ([2]; dog, plasma, 1 h) | Remaining rate (%) 120 min ([2]; dog, plasma, 2 h) | AUC(0-inf) [3] | Cmax [3] | Tmax [3] | Remaining rate (%) 0 min ([2]; Dog plasma, 37°C, 0 min) | Remaining rate (%) 15 min ([2]; Dog plasma, 37°C, 15 min) | Remaining rate (%) 30 min ([2]; Dog plasma, 37°C, 30 min) | Remaining rate (%) 60 min ([2]; Dog plasma, 37°C, 60 min) | Remaining rate (%) 120 min ([2]; Dog plasma, 37°C, 120 min)
1 | [2H]C([2H])([2H])[C@@H]1Oc2nc(-c3cc(O)cc4ccc(F)c(C#C)c34)c(F)c3nc(OCC4(CN5CCC(=C(F)F)CC5)CC4)nc(c23)N2C[C@H]3CC[C@H](N3)[C@@H]12 [Example 161, 4-((5S,5aS,6S,9R)-12-((1-((4-(difluoromethylene)piperidin-1-yl)methyl)cyclopropyl)methoxy)-1-fluoro-5-(methyl-d3)-5a,6,7,8,9,10-hexahydro-5H-4-oxa-3,10a,11,13,14-pentaaza-6,9-methylnaphtho[1,8-ab]hept-2-yl)-5-ethynyl-6-fluoronaphthalen-2-ol] | 209 mm^3 | 137.45% | 131 mm^3 | 11.47% | 0.24 nM | 31.4 h | 100.00% | 91.74% | 92.09% | 90.97% | 88.28% | 1.55 µg·h/mL | 0.221 µg/mL | 2 h |  |  |  |  | 
2 | [2H]C([2H])(Oc1nc2c3c(nc(-c4cc(O)cc5ccc(F)c(C#C)c45)c(F)c3n1)O[C@@H](C)[C@@H]1[C@@H]3CC[C@H](CN21)N3)C1(C([2H])([2H])N2CCC(=CF)CC2)CC1 [Example 291, 5-ethynyl-6-fluoro-4-((5S,5aS,6S,9R)-1-fluoro-12-((1-((4-(fluoromethylene)piperidin-1-yl)methyl-d2)cyclopropyl)methoxy-d2)-5-methyl-5a,6,7,8,9,10-hexahydro-5H-4-oxa-3,10a,11,13,14-pentaaza-6,9-methylnaphtho[1,8-ab]hept-2-yl)naphthalen-2-ol] | 210 mm^3 | 127.51% | 153 mm^3 | 13.29% | 0.15 nM | 94.6 h |  |  |  |  |  |  |  |  | 100.00% | 104.39% | 94.89% | 103.00% | 99.65%
